Experimental data: patent publication US20140228381A1, “METHODS OF CONTROLLING INSECTS OF THE FAMILY CURCOLIONIDAE” (SYNGENTA PARTICIPATIONS AG, priority 2011, published 2014)

Key:
Type in all cases: in vivo
Anthonomus adults = assay: B.5 immobility effect, contact spray on Anthonomus adults; conditions: 300 ppm contact spray; for no of insects at infestation site (A) / no of insects capable of leaving the infestation site (B) + (C) / no of insects in test arena, not on diet (C) / no of insects on diet (B): 50 beetles
Procedure: In this test 50 freshly hatched beetles were treated with FLON (IF 050 formulation) and PYQU (VVG 50 formulation). Using a turntable spray, 300 ppm of a 200 g ai/ha formulation were sprayed directly on the beetles. The control beetles (“check”) were sprayed with water. The petri dish was then placed in the test arena next to which was placed a diet situated 23 cm above ground. After a certain time periods shown below in the table, the number of beetles on different sites was counted: […]

Anthonomus grandis [1] = assay: B.4 field trial, insecticidal activity against Anthonomus grandis in cotton
Procedure: Trials were carried out in a randomized complete block design, each comprising of 4 replicates, plot size of 30 m^2. Application was carried out with a pressurized knap sack sprayer. 200 liters of spray volume was applied per ha. 4 applications were carried out in 5 days interval, the first application at BBCH 51. Flonicamid was applied as a 50% WG, and Pyrifluquinaon as a 10% WP. Efficacy was evaluated 2 days after 4th and 7 days after 4th application. 50 squares were counted per plot and the percentage reduction of damaged squares in comparison to untreated control was calculated after the ABBOTT formula.

Tetranychus urticae = assay: BP80 Tetranychus urticae mixed population, feeding/contact activity, preventative; conditions: bean leaf discs, mixed ages, 8 days
Procedure: (§1) BP80s (break points for 80% mortality) were obtained for Pyrifluquinazon and Flonicamid against the following pests: Heliothis virescens, Plutella xylostella, Tetranychus urticae and Cydia pomonella. The specific method used for each pest is outlined below. Heliothis virescens (Tobacco Budworm): ovo-larvicide, feeding/contact activity, curative Eggs (0-24 h old) are placed in a 24-well microtiter plate on artificial diet and treated with test solutions by pipetting. After an incubation period of 5 days, samples are checked for egg mortality and larval mortality. Selectable application rates: 500-0.05 ppm Plutella xylostella (Diamondback Moth): larvicide, feeding/residual contact activity, preventative 24-well microtiter plates with artificial diet are treated with test solutions by pipetting. After drying, the plates are infested with L2 larvae (10-15 per well). After an incubation period of 5 days, samples are checked for larval mortality. Selectable application rates: 500-0.05 ppm Tetranychus urticae (Two-Spotted Spider Mite): Mixed Population feeding/contact activity, preventative Bean leaf discs on agar in 24-well microtiter plates are sprayed with test solutions. After drying, the leaf discs are infested with mite populations of mixed ages. 8 days later, discs are checked for egg mortality, larval mortality, and adult mortality. […]

Cydia pomonella = assay: BP80 Cydia pomonella larvicide, contact/feeding activity, preventative; conditions: L1 larvae on diet cubes, 14 days after infestation
Procedure: as §1

Anthonomus grandis [2] = assay: B.3 field trial, insecticidal activity against Anthonomus grandis in cotton; conditions: 75 g ai/ha, 50% WG
Procedure: Trials were carried out in a randomized complete block design, each comprising of 4 replicates and a plot size of 30 m^2. Application was carried out with a pressurized knap sack sprayer. 200 liters of spray volume was applied per ha. 3 applications were carried out in 5 days interval, the first application at BBCH 51. Flonicamid was applied as a 50% WG. Efficacy was evaluated 2 days after 2nd and 5 days after 3rd application. 50 squares were counted per plot and the percentage reduction of damaged squares in comparison to untreated control was calculated after the ABBOTT formula.

Plutella xylostella = assay: BP80 Plutella xylostella larvicide, feeding/residual contact activity, preventative; conditions: L2 larvae on artificial diet, 5 days incubation
Procedure: as §1

Anthonomus grandis [3] = assay: B.2 field trial, insecticidal activity against Anthonomus grandis in cotton; conditions: 75 g ai/ha, 50% WG
Procedure: Trials were carried out in a randomized complete block design, each comprising of 4 replicates, plot size of 30 m^2. Application was carried out with a pressurized knap sack sprayer. 200 liters of spray volume was applied per ha. 4 applications were carried out in 5 days interval. Flonicamid was applied as a 50% WG Efficacy was evaluated 2 days after 2nd application and 4 days after 4th application. 50 squares were counted per plot and the % reduction of damaged squares in comparison to untreated control was calculated after the ABBOTT formula.

Heliothis virescens = assay: BP80 Heliothis virescens ovo-larvicide, feeding/contact activity, curative; conditions: eggs on artificial diet, 5 days incubation
Procedure: as §1

Compound: N#CCNC(=O)c1cnccc1C(F)(F)F [Flonicamid, N-(cyanomethyl)-4-(trifluoromethyl)-3-pyridinecarboxamide]
- immobility effect disappeared with time (rank order) (Anthonomus adults): PYQU>FLON
- no of insects at infestation site (A) (Anthonomus adults; 3 hours): 37
- no of insects capable of leaving the infestation site (B) + (C) (Anthonomus adults; 3 hours): 13
- no of insects in test arena, not on diet (C) (Anthonomus adults; 3 hours): 11
- no of insects on diet (B) (Anthonomus adults; 3 hours): 2
- no of insects at infestation site (A) (Anthonomus adults; 6 hours): 44
- no of insects capable of leaving the infestation site (B) + (C) (Anthonomus adults; 6 hours): 6
- no of insects in test arena, not on diet (C) (Anthonomus adults; 6 hours): 3
- no of insects on diet (B) (Anthonomus adults; 6 hours): 3
- no of insects at infestation site (A) (Anthonomus adults; 24 hours): 37
- no of insects capable of leaving the infestation site (B) + (C) (Anthonomus adults; 24 hours): 13
- no of insects in test arena, not on diet (C) (Anthonomus adults; 24 hours): 6
- no of insects on diet (B) (Anthonomus adults; 24 hours): 7
- no of insects at infestation site (A) (Anthonomus adults; 32 hours): 21
- no of insects capable of leaving the infestation site (B) + (C) (Anthonomus adults; 32 hours): 29
- no of insects in test arena, not on diet (C) (Anthonomus adults; 32 hours): 3
- no of insects on diet (B) (Anthonomus adults; 32 hours): 26
- no of insects at infestation site (A) (Anthonomus adults; 48 hours): 14
- no of insects capable of leaving the infestation site (B) + (C) (Anthonomus adults; 48 hours): 36
- no of insects in test arena, not on diet (C) (Anthonomus adults; 48 hours): 6
- no of insects on diet (B) (Anthonomus adults; 48 hours): 30
- no of insects at infestation site (A) (Anthonomus adults; 52 hours): 10
- no of insects capable of leaving the infestation site (B) + (C) (Anthonomus adults; 52 hours): 40
- no of insects in test arena, not on diet (C) (Anthonomus adults; 52 hours): 3
- no of insects on diet (B) (Anthonomus adults; 52 hours): 37
- no of insects at infestation site (A) (Anthonomus adults; 72 hours): 9
- no of insects capable of leaving the infestation site (B) + (C) (Anthonomus adults; 72 hours): 41
- no of insects in test arena, not on diet (C) (Anthonomus adults; 72 hours): 7
- no of insects on diet (B) (Anthonomus adults; 72 hours): 34
- no of insects at infestation site (A) (Anthonomus adults; 78 hours): 5
- no of insects capable of leaving the infestation site (B) + (C) (Anthonomus adults; 78 hours): 45
- no of insects in test arena, not on diet (C) (Anthonomus adults; 78 hours): 6
- no of insects on diet (B) (Anthonomus adults; 78 hours): 39
- no of insects at infestation site (A) (Anthonomus adults; 144 hours): 15
- no of insects capable of leaving the infestation site (B) + (C) (Anthonomus adults; 144 hours): 35
- no of insects in test arena, not on diet (C) (Anthonomus adults; 144 hours): 3
- no of insects on diet (B) (Anthonomus adults; 144 hours): 32
- no of insects at infestation site (A) (Anthonomus adults; 150 hours): 5
- no of insects capable of leaving the infestation site (B) + (C) (Anthonomus adults; 150 hours): 45
- no of insects in test arena, not on diet (C) (Anthonomus adults; 150 hours): 1
- no of insects on diet (B) (Anthonomus adults; 150 hours): 44
- % reduction of damaged squares (Anthonomus grandis [1]; 75 g ai/ha, 2 days after 4th application): 65%
- % reduction of damaged squares (Anthonomus grandis [1]; 75 g ai/ha, 7 days after 4th application): 50%
- % reduction of damaged squares (Anthonomus grandis [1]; 150 g ai/ha, 2 days after 4th application): 81%
- % reduction of damaged squares (Anthonomus grandis [1]; 150 g ai/ha, 7 days after 4th application): 52%
- BP80 (break point for 80% mortality) (Tetranychus urticae): >200 ppm
- BP80 (break point for 80% mortality) (Cydia pomonella): >50 ppm
- % reduction of damaged squares (Anthonomus grandis [2]; 2 days after 2nd application): 67%
- % reduction of damaged squares (Anthonomus grandis [2]; 5 days after 3rd application): 52%
- BP80 (break point for 80% mortality) (Plutella xylostella): >200 ppm
- % reduction of damaged squares (Anthonomus grandis [3]; 2 days after 2nd application): 50%
- % reduction of damaged squares (Anthonomus grandis [3]; 4 days after 4th application): 57%
- BP80 (break point for 80% mortality) (Heliothis virescens): >200 ppm

Compound: CC(=O)N1C(=O)N(NCc2cccnc2)Cc2cc(C(F)(C(F)(F)F)C(F)(F)F)ccc21 [Pyrifluquinazon, 1-acetyl-3,4-dihydro-3-[(3-pyridinylmethyl)amino]-6-[1,2,2,2-tetrafluoro-1-(trifluoromethyl)ethyl]-2(1H)-quinazolinone]
- immobility effect disappeared with time (rank order) (Anthonomus adults): PYQU>FLON
- no of insects at infestation site (A) (Anthonomus adults; 3 hours): 45
- no of insects capable of leaving the infestation site (B) + (C) (Anthonomus adults; 3 hours): 5
- no of insects in test arena, not on diet (C) (Anthonomus adults; 3 hours): 1
- no of insects on diet (B) (Anthonomus adults; 3 hours): 4
- no of insects at infestation site (A) (Anthonomus adults; 6 hours): 45
- no of insects capable of leaving the infestation site (B) + (C) (Anthonomus adults; 6 hours): 5
- no of insects in test arena, not on diet (C) (Anthonomus adults; 6 hours): 2
- no of insects on diet (B) (Anthonomus adults; 6 hours): 3
- no of insects at infestation site (A) (Anthonomus adults; 24 hours): 39
- no of insects capable of leaving the infestation site (B) + (C) (Anthonomus adults; 24 hours): 11
- no of insects in test arena, not on diet (C) (Anthonomus adults; 24 hours): 3
- no of insects on diet (B) (Anthonomus adults; 24 hours): 8
- no of insects at infestation site (A) (Anthonomus adults; 32 hours): 27
- no of insects capable of leaving the infestation site (B) + (C) (Anthonomus adults; 32 hours): 23
- no of insects in test arena, not on diet (C) (Anthonomus adults; 32 hours): 4
- no of insects on diet (B) (Anthonomus adults; 32 hours): 19
- no of insects at infestation site (A) (Anthonomus adults; 48 hours): 28
- no of insects capable of leaving the infestation site (B) + (C) (Anthonomus adults; 48 hours): 22
- no of insects in test arena, not on diet (C) (Anthonomus adults; 48 hours): 4
- no of insects on diet (B) (Anthonomus adults; 48 hours): 18
- no of insects at infestation site (A) (Anthonomus adults; 52 hours): 30
- no of insects capable of leaving the infestation site (B) + (C) (Anthonomus adults; 52 hours): 20
- no of insects in test arena, not on diet (C) (Anthonomus adults; 52 hours): 6
- no of insects on diet (B) (Anthonomus adults; 52 hours): 14
- no of insects at infestation site (A) (Anthonomus adults; 72 hours): 30
- no of insects capable of leaving the infestation site (B) + (C) (Anthonomus adults; 72 hours): 20
- no of insects in test arena, not on diet (C) (Anthonomus adults; 72 hours): 6
- no of insects on diet (B) (Anthonomus adults; 72 hours): 14
- no of insects at infestation site (A) (Anthonomus adults; 78 hours): 24
- no of insects capable of leaving the infestation site (B) + (C) (Anthonomus adults; 78 hours): 26
- no of insects in test arena, not on diet (C) (Anthonomus adults; 78 hours): 4
- no of insects on diet (B) (Anthonomus adults; 78 hours): 22
- no of insects at infestation site (A) (Anthonomus adults; 144 hours): 15
- no of insects capable of leaving the infestation site (B) + (C) (Anthonomus adults; 144 hours): 35
- no of insects in test arena, not on diet (C) (Anthonomus adults; 144 hours): 4
- no of insects on diet (B) (Anthonomus adults; 144 hours): 31
- no of insects at infestation site (A) (Anthonomus adults; 150 hours): 15
- no of insects capable of leaving the infestation site (B) + (C) (Anthonomus adults; 150 hours): 35
- no of insects in test arena, not on diet (C) (Anthonomus adults; 150 hours): 2
- no of insects on diet (B) (Anthonomus adults; 150 hours): 33
- % reduction of damaged squares (Anthonomus grandis [1]; 100 g ai/ha, 2 days after 4th application): 77%
- % reduction of damaged squares (Anthonomus grandis [1]; 100 g ai/ha, 7 days after 4th application): 37%
- % reduction of damaged squares (Anthonomus grandis [1]; 200 g ai/ha, 2 days after 4th application): 85%
- % reduction of damaged squares (Anthonomus grandis [1]; 200 g ai/ha, 7 days after 4th application): 48%
- BP80 (break point for 80% mortality) (Tetranychus urticae): >200 ppm
- BP80 (break point for 80% mortality) (Plutella xylostella): >200 ppm
- BP80 (break point for 80% mortality) (Heliothis virescens): >200 ppm
